We go through 3 compounds from patent US20240181125A1, “COMPOSITIONS AND METHODS FOR SCARLESS WOUND HEALING IN DIABETES” (Washington University, priority 2022, published 2024).

Entries after “also recorded” stand apart in the source; their conditions may differ.

The subject of one data set is TGFβ1/p38 pathway. Put plainly: Immunoblotting of p-p38 in HDFs. In kind it is cell-based, human. Particulars: high glucose. The method, then: For in vitro tests, protein lysates were collected from HDFs. Pre-cooled cell scrapers were used to detach the cells, and the cells were re-suspended in RIPA lysis buffer with the inhibitor cocktail. For in vivo tests, wound skin tissues were washed three times with pre-cooled DPBS, dissected into small pieces, and re-suspended in RIPA lysis buffer containing protease and phosphatase inhibitors. Homogenization was then performed thereafter with an ultrasonic processor (Cole Parmer). After centrifugation at 12,000 g for 20 min, the supernatants were collected, and protein concentrations were measured using a Bradford protein assay kit (Bio-rad).
The protein samples were separated by 10% Mini-PROTEAN TGX stain-free precast gels (Bio-rad) and transferred onto an immune-blot PVDF membrane. The blots were washed three times with DPBS containing 0.1% Tween 20 (PBST), blocked with 5% milk powder in PBST buffer for 40 min, and incubated with primary antibodies at specific dilutions overnight at 4° C. The primary antibodies included rabbit GAPDH antibody (1:5000, Cell signaling), rabbit anti-a-smooth muscle actin (α-SMA) antibody (1:2000, Cell signaling), rabbit anti-phospho-Smad2(Ser465/467)/Smad3 (Ser423/425) (1:500, Cell signaling), and rabbit anti-phospho-p38 (1:500, Cell signaling). The membranes were washed three times with PBST and incubated with horseradish peroxidase (HRP)-conjugated secondary antibodies (1:2500). Immunoblots were then washed with PBST and detected with a WesternBright HRP substrate detection kit (Advansta). The ChemiDoc XPS+system (Bio-rad) was used to image the blots.
(In general: A western blot detects proteins with antibodies after separation by electrophoresis.)

Data set [1] is described as follows: In vitro release of peptide from hydrogel. In kind it is physicochemical. Particulars: loadings 10, 20, 50 μg/mL; three weeks. The method, then: To characterize the ECG release properties of the NIPAAm-based hydrogels disclosed herein, the following experiments were conducted. Hydrogel samples were synthesized with varying levels of ECG loading: 10 μg/mL, 20 μg/mL, and 50 μg/mL. The cumulative release of ECG from the hydrogel samples was assessed over a three-week period.
Wound dressings were fabricated by encapsulating PTβR2I in the hydrogel solution at 4° C. Briefly, PTβR2I solution was mixed with 6 wt. % hydrogel solution to reach final PTβR2I concentrations of 10 μg/mL, 20 μg/mL and 50 μg/mL. The mixtures were stirred at 4° C. for 12 hours. To determine PTβR2I release kinetics, the mixtures were first incubated at 37° C. to gel. After 1 hour, the supernatant was replaced by a release medium (DPBS with 1% P/S). The medium was then collected at pre-determined time points for 21 days, and a fresh release medium was added after each collection. The concentration of the released PTβR2I was determined by measuring the fluorescence intensity and calculating the corresponding concentration using a standard curve. The bioactivity of the released PTβR2I was evaluated by its ability to bind to the TβR2 on the HDFs. […] After 2 hours of incubation, the cells were washed three times with DPBS, and the fluorescence intensity was measured using a microplate reader (excitation/emission=485/535 nm).

Data set [2] relates to dermal wounds of db/db mice. The data set can be described thus: Example 3 dermal wound closure, subcutaneous ECG/gel. It counts as in vivo. The method, then: db/db (Diabetic, […]) mice were used as an animal wound model. Dermal wounds were created using sterile 5 mm biopsy punches to expose the underlying muscle fascia, followed by subcutaneous injection of either control gel (6 wt %) or ECG/gel (50 μg/mL ECG in 6 wt % gel). In addition, a subgroup of the dermally-wounded mice was left untreated as controls. The dermal wounds of all mice were observed every other day until recovery using a digital camera to record successive images as well as measuring wound size using digital calipers. Image analysis using ImageJ was also performed to do a blind measurement of wound size. Subgroups of the mice were sacrificed at three different time points: day 3, day 8, and day 16. Skin samples were collected from the sacrificed mice for histology, immunohistochemistry analysis, and Western blot studies.

The subject of the next data set is HDF, HaCaT, HAECs, BMM. Put plainly: Example 4 in vitro survival, migration, cytokine and growth factor secretion with TGF-beta I and high glucose. In kind it is cell-based, human, mouse. The text has this: Human dermal fibroblasts (HDF), human skin keratinocytes (HaCaT), human artery endothelial cells (HAECs), and mouse bone marrow-derived macrophages (BMM) were used to test the in vitro survival, migration, secretion of inflammatory cytokines, and angiogenic growth factors in the presence of TGF-beta I and high glucose content.
FIG. 4B is a Western blot of p38 and GAPDH (control) expression for dermal fibroblasts under high glucose levels. Untreated cells (control) were compared with cells exposed to 10 ng/ml of TGFβ with ECG treatments of 0 μg/mL, 10 μg/mL, and 1 μg/mL.

`Oc1ccc(-c2nc(-c3ccncc3)c(-c3ccc(F)cc3)[nH]2)cc1` [SB202190, reference compound]: the p-p38 expression entry in the data set on TGFβ1/p38 pathway (with TGFβ1) is recorded as “notably downregulated”.

Consider ECGLLPVGRPDRVWRLCK, for which the “duration of initial rapid release of ECG from hydrogel” value in data set [1] is 3 to 4 days. Also, in data set [2] (Western blot vs control gel), the “p38 expression in wound tissues” value was “suppressed; also recorded: downregulated”. Besides, in data set [2] (day 8), the “increase of blood vessel density and mature blood vessel density vs control” value is recorded as “up to 4 fold”. Also, the “survival and migration of keratinocytes, fibroblasts, and endothelial cells” value with HDF, HaCaT, HAECs, BMM (presence of TGF-beta I) was “improved”. In the data set on HDF, HaCaT, HAECs, BMM (various cell types), the “angiogenic growth factor secretions” value is “promoted” and the pro-inflammatory cytokines expression result was “suppressed”.

Turning to “TGFβ1: growth factor used as stimulus, 10 ng/ml”, in the data set with TGFβ1/p38 pathway, the “increase in baseline phosphorylation of p38 relative to no TGFβ1 group” value is recorded as around 4 fold.
